These results are taken from patent US6703404B2, “Tert -butyl-(7-methyl-imidazol [1,2-a]pyridin-3-yl)-amine derivatives” (Gruenenthal GmbH, priority 1999, dated 2004).

Counter-ions that a name gives are not always drawn.

Experiment [1] addresses T1, NO synthase (Rattus norvegicus, UniProt P29476). Description: HTS-NOS assay (labelled arginine, filter plate). It is filed as biochemical. On the set-up: from tissue; host or cells: rat cerebellum (20,000 g supernatant of homogenate). The settings on record: 10 μm test substance; enzyme from rat cerebellum. As to the method: This assay enabled the percentage inhibition of NO synthase to be determined by measuring the NOS activity on the action of the active ingredient. NO synthase was mixed with radioactively labelled arginine and the active ingredient under suitable conditions. After terminating the NO-forming reaction at a predetermined time, the amount of unreacted arginine was determined directly or indirectly. Comparison of this amount with the amount of arginine remaining from a mixture of NOS and arginine without the addition of active ingredient but under conditions which were otherwise the same gave the % inhibition of NO synthase by the active ingredient tested. This assay was performed as follows:
(a) Incubation of NO synthase, with labelled arginine as a substrate, in a reaction vessel.
(b) Separation of the labelled arginine from any labelled citrulline which was formed as a product of the enzymatic reaction at a time at which the concentration of citrulline was increasing.
(c) Measuring the amount of arginine separated in each case.
Separation was effected through a filter plate membrane.
This NOS assay was particularly suitable for “High Throughput Screening” (HTS) on microtitration plates (MTPs).
In this HTS-NOS assay, radioactive arginine was used as the substrate. The assay volume can be selected within the range from […] depending on the type of microtitration plate (MTP). Cofactors and coenzymes were added depending on the enzyme source used. Batches were incubated in this microtitration plate (assay MTP) according to step (a) at room temperature, for between 5 and 60 minutes depending on the enzyme activity (units) employed. At the end of the incubation (step (a)) the plate was placed in a cell harvester which was fitted with an MTP comprising a cation exchange membrane filter base (filter MTP). All the batches from the assay MTP were transferred to this filter MTP and were filtered off under suction through a cation exchange filter plate comprising a paper filter containing phosphate groups. […] By means of this procedure, the remaining arginine substrate was bound to the cation exchanger, whilst the enzymatically formed radioactive citrulline was quantitatively removed by washing. After drying the filter MTP and adding a scintillation liquid, the bound arginine was counted in a scintillation counter. An uninhibited NOS reaction was manifested by a low level of radioactivity. An inhibited enzyme reaction meant that the radioactive arginine had not reacted, i.e. the filter contained a high level of radioactivity. […]
The contents of the assay MTP were subsequently transferred by means of a 96-well cell harvester into a 96-well cation exchanger MTP (filter MTP) and was filitered under suction. […] After a holding time of 1 hour, the plate was measured in a βcounter. […]

Experiment [2] addresses T1, NO synthase. Nature of the experiment: Citrulline assay (Bredt and Snyder). It is filed as biochemical. The procedure:
This assay was performed as described by D. S. Bredt and S. H. Snyder (Proc. Natl. Acad. Sci. USA (1990), 87, 682-85).

As a reminder, the inhibition is the drop in the measured response relative to a control, in per cent. A word on the IC50: it is the concentration that inhibits the measured activity by half. Low readings indicate higher potency, high ones lower potency.

`Cc1cc(C)n2c(NC(C)(C)C)c(C3CCCCC3)nc2c1` [Example 5, tert-butyl-(2-cyclohexyl-5,7-dimethyl-imidazo[1,2-a]pyridin-3-yl)-amine] registered an inhibition at 10 µM against NO synthase [1] of 63%.
Turning to `Cc1cc(C)n2c(NC(C)(C)C)c(-c3ccc([N+](=O)[O-])o3)nc2c1` [Example 9], the “HTS-NOS assay: %-inhibition (10 μm)” value at NO synthase [1] came out at 59%.
On the same count and under the same terms, the same measure for `Cc1ccn2c(NC(C)(C)C)c(-c3ccc(C(=O)O)s3)nc2c1` [Example 17, 5-(3-tert-butylamino-7-methyl-imidazo[1,2-a]pyridin-2-yl)-thiophen-12-carboxylic acid]: 61%.
At NO synthase [2], `Cc1cc(C)n2c(NC(C)(C)C)c(-c3ccco3)nc2c1` [Example 18, tert-butyl-(2-furan-2-yl-5,7-dimethyl-imidazo[1,2-a]pyridin-3-yl)amine hydrochloride] returned an IC50 of 2800 nM. This counts as single-digit micromolar.
Same read-out and setting: the same measure for `Cc1ccn2c(NC(C)(C)C)c(-c3ccccc3)nc2c1` [Example 19, tert-butyl-(7-methyl-2-phenylimidazo[1,2-a]pyridin-3-yl)amine hydrochloride]: 2400 nM; for `Cc1cc(C)n2c(NC(C)(C)C)c(C)nc2c1` [Example 20, tert-butyl-(2,5,7-trimethyl[1,2-a]pyridin-3-yl)amine hydrochloride]: 9200 nM.
On to “[5-(3-tert-butyl-7-methyl-imidazo[1,2-a]pyridin-2-yl)-furan-2-yl]-methanol [Example 10]”, for which the “HTS-NOS assay: %-inhibition (10 μm)” value on NO synthase [1] is 52%.
